The values that follow come from patent publication US7649002B2, “(3,5-dimethylpiperidin-1yl)(4-phenylpyrrolidin-3-yl)methanone derivatives as MCR4 agonists” (Pfizer Inc, priority 2004, dated 2010).

In general, EC50 refers to the concentration needed to bring the measured effect to its halfway point.

The target in this assay is T1, human MCR4 receptor (Homo sapiens, UniProt P32245).
T1 construct: expressed in transfected cells
Description: MCR4 improved functional assay (Protocol E): CHO-K1-MC4R-CRE-β-lactamase reporter. It is filed as cell-based. From the text:
(ii) MCR5 Standard Functional Assay Methodology and MCR4 Improved Functional Assay Methodology [Assay Protocol D and E Respectively] […] These cell lines were engineered using protocols akin to those outlined by Zaccolo et al (Zaccolo, M., (2000) Nature, 2(1); 25-29). Compound-induced activation of the MCR5 or MCR4 receptors in these two cell lines stimulated the production, and intracellular accumulation, of the enzyme β-lactamase. The quantity of β-lactamase enzyme produced was directly proportional to the degree to which the test compound activated the MCR5 or MCR4 receptors present on these cells and was quantified using the P-lactamase gene reporter analysis kit that is commercially available from Invitrogen Life Technologies. An in-depth description of this technology and assay protocols are available from the Invitrogen web site (www.invitrogen.com). The protocol listed below provides a summary of that assay methodology. The quantity of β-lactamase enzyme produced by compound-induced activation of the MCR5 or MCR4 receptors expressed in these cell lines was quantified using a LjI Biosystems Analyst™ HT 96.384 plate reader set to excite at a wave length of 405 nm, and measure the energy emitted at wave lengths of 450 nm and 530 nm. Cellular responses were quantified by dividing the measured energy emitted at a wavelength of 450 nm by the measured energy emitted at a wavelength of 530 nm. […] CCF4-AM was dissolved in 100% DMSO to give a final solution concentration of 1 mM. This solution was termed Solution A. Probenecid was dissolved in 200 mM NaOH to give a final solution concentration of 200 mM. This solution was termed Solution D. Composition of the β-lactamase assay dye solution: for 1072 μL of assay dye solution combine: 12 μL of Solution A, 60 μL of Solution B, 925 μL of Solution C and 75 μL of Solution D. […] Cells were grown in T225 vent cap flasks containing 50 ml of growth medium and maintained in a cell incubator at a temperature of 37° C. and in an environment containing 5% CO2. The composition of the growth medium for the CHO-K1-MC5R-CRE-β-lactamase was 90% v/v DMEM supplemented with; Glutamax-1, 25 mM HEPES, 10% v/v foetal calf serum (FCS), 1 mM sodium pyruvate, 0.1 mM non essential amino acids and 800 μg/ml genetic in. For the CHO-K1-MC4R-CRE-β-lactamase this growth media was further supplemented with […] Zeocin. Cells were harvested when they reached 80-90% confluency by first removing the existing growth medium and then washing with PBS that had been pre-warmed to a temperature of 37° C. This PBS was then removed and 5 ml of cell dissociation fluid added to the flask. These cells were incubated for 5 minutes in a cell incubator set at a temperature of 37° C. and in an environment containing 5% CO2 to detach the cells. When cells were detached, pre-warmed growth media was added, the cells re-suspended and mixed gently to achieve a single cell suspension by pipetting. This cell suspension was then used for experimentation, or transferred into a new T225 flask to perpetuate the cell culture. […] For each assay the cell plates were then retuned to a cell incubator maintained at a temperature of 37° C. and in an environment containing 5% CO2 overnight before performing the assay on the second assay day. […] For the MCR4 improved functional assay methodology the solution of cyclohexamide was not added. Subsequently, 10 μL of the test compound solution was transferred to the assay plate. The assay plate was then transferred to a cell incubator, set at 37° C. and in an environment containing 5% CO2, and left for 4 hours for the MCR4 improved assay methodology, or 5 hours for the MCR5 standard assay methodology. After this incubation period the plate was removed from the incubator, 10 μL of the […] assay dye solution was added to each well and then the plate returned to the cell incubator.

The mark [1] stands for this setting: Protocols C or E, read-out: functional potency at the MC4 receptor (EC50).

Like-named read-outs stand apart in the source and are kept apart here.

T1 sequence (P32245 whole entry): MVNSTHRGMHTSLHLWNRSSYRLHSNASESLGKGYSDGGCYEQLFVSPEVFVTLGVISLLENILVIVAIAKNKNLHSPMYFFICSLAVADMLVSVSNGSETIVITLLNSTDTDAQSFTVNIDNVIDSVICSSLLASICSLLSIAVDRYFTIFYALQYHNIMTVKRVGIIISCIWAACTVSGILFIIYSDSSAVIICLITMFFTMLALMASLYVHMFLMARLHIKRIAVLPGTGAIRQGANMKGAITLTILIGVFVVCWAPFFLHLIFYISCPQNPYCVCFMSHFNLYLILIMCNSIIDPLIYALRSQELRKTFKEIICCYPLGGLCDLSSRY

As for `C[C@@H]1CN(C(=O)[C@@H]2CN(C(C)(C)C)C[C@H]2c2ccc(F)cc2F)C[C@H](C)[C@@]1(O)c1ccccc1` [Example 1, (3R,4R,5S)-1-{[(3S,4R)-1-tert-Butyl-4-(24-difluorophenyl)pyrrolidin-3-yl]carbonyl}-3,5-dimethyl-4-phenylpiperidin-4-ol], the EC50 under setting [1] is under 10 nM.
As to `C[C@@H]1CN(C(=O)[C@@H]2CN(C(C)(C)C)C[C@H]2c2ccc(F)cc2F)C[C@H](C)[C@@]1(O)c1ccccc1.Cl` [Example 5, (3R,4R,5S)-1-{[(3S,4R)-1-tert-Butyl-4-(2,4-difluorophenyl)pyrrolidin-3-yl]carbonyl}-3,5-dimethyl-4-phenylpiperidin-4-ol hydrochloride], the EC50 under setting [1] was under 10 nM and the EC50 (Table 6, read-out: MCR4 EC50) amounted to 9.6 nM.
As to `CC(C)N1C[C@@H](C(=O)N2C[C@@H](C)[C@](O)(c3ccccc3)[C@@H](C)C2)[C@H](c2ccc(F)cc2F)C1.Cl` [Example 6, (3R,4R,5S)-1-{[(3S,4R)-4-(2,4-Difluorophenyl)-1-isopropylpyrrolidin-3-yl]carbonyl}-3,5-dimethyl-4-phenylpiperidin-4-ol hydrochloride], the EC50 runs as follows: (MCR4 EC50 (nM), Table 6) 19 nM; (functional potency at the MC4 receptor (EC50), Protocols C or E) under 50 nM.
Regarding `C[C@@H]1CN(C(=O)[C@@H]2CNC[C@H]2c2ccc(F)cc2F)C[C@H](C)[C@@]1(O)c1ccc(F)cc1.Cl` [Example 12, (3R,4R,5S)-1-{[(3S,4R)-4-(2,4-difluorophenyl)pyrrolidin-3-yl]carbonyl}-4-(4-fluorophenyl)-3,5-dimethylpiperidin-4-ol hydrochloride], the EC50 reads like this: under setting [1], under 150 nM; (Table 6, read-out: MCR4 EC50) 75 nM.
For `C[C@@H]1CN(C(=O)[C@@H]2CN(C(C)(C)C)C[C@H]2c2ccc(F)cc2F)C[C@H](C)[C@@]1(O)c1ccc(Cl)cc1.Cl` [Example 13, (3R,4R,5S)-1-{[(3S,4R)-1-tert-butyl-4-(2,4-difluorophenyl)pyrrolidin-3-yl]carbonyl}-4-(4-chlorophenyl)-3,5-dimethylpiperidin-4-ol hydrochloride], in that order: under 50 nM and 27 nM.
For `C[C@@H]1CN(C(=O)[C@@H]2CN(c3ccccn3)C[C@H]2c2ccc(F)cc2F)C[C@H](C)[C@@]1(O)c1ccccc1.Cl` [Example 31, (3R,4R,5S)-1-{[(3S,4R)-4-(2,4-difluorophenyl)-1-pyridin-2-ylpyrrolidin-3-yl]carbonyl}-3,5-dimethyl-4-phenylpiperidin-4-ol hydrochloride], in that order: under 10 nM and 3.6 nM.
Take `C[C@@H]1CN(C(=O)[C@@H]2CN(c3cccnn3)C[C@H]2c2ccc(F)cc2F)C[C@H](C)[C@@]1(O)c1ccccc1.Cl` [Example 35, (3R,4R,5S)-1-{[(3S,4R)-4-(2,4-difluorophenyl)-1-pyridazin-3-ylpyrrolidin-3-yl]carbonyl}-3,5-dimethyl-4-phenylpiperidin-4-ol hydrochloride]: the EC50 reads like this: under setting [1], under 10 nM; (Table 6, read-out: MCR4 EC50) 1.5 nM.
